Here are results for 43 compounds from patent US8101550B2, “Anthranilic acid diamide derivative with hetero-aromatic and hetero-cyclic substituents” (Bayer Cropscience AG, priority 2006, dated 2012).

A short description of the series: log P determination by HPLC on reverse-phase column (EEC Directive 79/831 Annex V.A8). It is filed as physicochemical. Summed up:
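Reverse-phase C18 HPLC at 43 °C, following EEC Directive 79/831 Annex V.A8. Acidic LC-MS used pH 2.7 eluents (0.1% aqueous formic acid and acetonitrile with 0.1% formic acid) on a 10–95% acetonitrile linear gradient. Log P was interpolated linearly from retention times against unbranched C3–C16 alkan-2-ones of known log P.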
The logP is the decadic logarithm of the partition coefficient of the neutral form, usually between octanol and water. A high value points to a more lipophilic compound. The compound `CC(C)NC(=O)c1cc(Cl)cc(Cl)c1NC(=O)c1cc(Cn2nc(C(F)(F)F)nc2C(F)(F)F)nn1-c1ncccc1Cl` [I-1-291] registered a logP of 3.76. In the case of `N#CCNC(=O)c1cc(Cl)cc(Cl)c1NC(=O)c1cc(Cn2nc(C(F)(F)F)nc2C(F)(F)F)nn1-c1ncccc1Cl` [I-1-292] it was 2.83; in that of `O=C(NCC1CC1)c1cc(Cl)cc(Cl)c1NC(=O)c1cc(Cn2nc(C(F)(F)F)nc2C(F)(F)F)nn1-c1ncccc1Cl` [I-1-293], 3.22; in that of `CC(C)NC(=O)c1cc(Cl)cc(Cl)c1NC(=O)c1cc(Cn2cc(C(F)(F)C(F)(F)F)c(C(F)(F)C(F)(F)F)n2)nn1-c1ncccc1Cl` [I-1-294], 4.00.

As to `O=C(NC1CC1)c1cc(Cl)cc(Cl)c1NC(=O)c1cc(Cn2nc(C(F)(F)F)nc2C(F)(F)F)nn1-c1ncccc1Cl` [I-1-295], the logP turned out to be 2.95. In the case of `NC(=O)c1cc(Cl)cc(Cl)c1NC(=O)c1cc(Cn2cc(C(F)(F)C(F)(F)F)c(C(F)(F)C(F)(F)F)n2)nn1-c1ncccc1Cl` [I-1-296] it was 3.43. As to `CNC(=O)c1cc(Cl)cc(Cl)c1NC(=O)c1cc(Cn2cc(C(F)(F)C(F)(F)F)c(C(F)(F)C(F)(F)F)n2)nn1-c1ncccc1Cl` [I-1-297], the logP is recorded as 3.59. The logP values of the last two compounds are within 0.2 log units of each other.

Regarding `NC(=O)c1cc(Cl)cc(Cl)c1NC(=O)c1cc(Cn2nc(C(F)(F)F)nc2C(F)(F)F)nn1-c1ncccc1Cl` [I-1-298], the logP was 2.61. The compound `N#CCNC(=O)c1cc(Cl)cc(Cl)c1NC(=O)c1cc(Cn2cc(C(F)(F)C(F)(F)F)c(C(F)(F)C(F)(F)F)n2)nn1-c1ncccc1Cl` [I-1-299] had a logP of 3.53. With `O=C(NC1CC1)c1cc(Cl)cc(Cl)c1NC(=O)c1cc(Cn2nc(C(F)(F)F)cc2C(F)(F)F)nn1-c1ncccc1Cl` [I-1-300], the logP is 3.19. Then `CC(C)NC(=O)c1cc(Cl)cc(Cl)c1NC(=O)c1cc(Cc2ccoc2)nn1-c1ncccc1Cl` [I-1-301], with 2.60; and `NC(=O)c1cc(Cl)cc(Cl)c1NC(=O)c1cc(Cn2nc(C(F)(F)F)cc2C(F)(F)F)nn1-c1ncccc1Cl` [I-1-302], with 2.80.

Turning to `N#CCNC(=O)c1cc(Cl)cc(Cl)c1NC(=O)c1cc(Cn2nc(C(F)(F)F)cc2C(F)(F)F)nn1-c1ncccc1Cl` [I-1-303], the logP amounted to 2.98. In the case of `CNC(=O)c1cc(Cl)cc(Cl)c1NC(=O)c1cc(Cn2nc(C(F)(F)F)cc2C(F)(F)F)nn1-c1ncccc1Cl` [I-1-304] it was 3.01.

As for `CC(C)NC(=O)c1cc(Cl)cc(Cl)c1NC(=O)c1cc(Cn2nc(C(F)(F)F)cc2C(F)(F)F)nn1-c1ncccc1Cl` [I-1-305], the logP was 3.40. In the case of `CNC(=O)c1cc(Cl)cc(Cl)c1NC(=O)c1cc(Cc2ccoc2)nn1-c1ncccc1Cl` [I-1-306] it was 2.18. In the case of `NC(=O)c1cc(Cl)cc(Cl)c1NC(=O)c1cc(Cn2cc(Cl)c(C(F)(F)C(F)(F)F)n2)nn1-c1ncccc1Cl` [I-1-307] it was 2.95. Regarding `CNC(=O)c1cc(Cl)cc(Cl)c1NC(=O)c1cc(Cn2cc(Cl)c(C(F)(F)C(F)(F)F)n2)nn1-c1ncccc1Cl` [I-1-308], the logP came to 3.18. Consider `CC(C)NC(=O)c1cc(Cl)cc(Cl)c1NC(=O)c1cc(Cn2cc(Cl)c(C(F)(F)C(F)(F)F)n2)nn1-c1ncccc1Cl` [I-1-309], for which the logP is 3.53. In turn, `N#CCNC(=O)c1cc(Cl)cc(Cl)c1NC(=O)c1cc(Cn2cc(Cl)c(C(F)(F)C(F)(F)F)n2)nn1-c1ncccc1Cl` [I-1-310] showed a logP of 3.13. In the case of `NC(=O)c1cc(Cl)cc(Cl)c1NC(=O)c1cc(Cn2ccc(C(F)(F)F)n2)nn1-c1ncccc1Cl` [I-1-311] it was 2.21. Then `CNC(=O)c1cc(Cl)cc(Cl)c1NC(=O)c1cc(Cn2ccc(C(F)(F)F)n2)nn1-c1ncccc1Cl` [I-1-312], with 2.37. In the case of `N#CCNC(=O)c1cc(Cl)cc(Cl)c1NC(=O)c1cc(Cn2ccc(C(F)(F)F)n2)nn1-c1ncccc1Cl` [I-1-313] it was 2.43; in that of `CC(C)NC(=O)c1cc(Cl)cc(Cl)c1NC(=O)c1cc(Cn2ccc(C(F)(F)F)n2)nn1-c1ncccc1Cl` [I-1-314], 2.77; in that of `O=C(NC1CC1)c1cc(Cl)cc(Cl)c1NC(=O)c1cc(Cn2ccc(C(F)(F)F)n2)nn1-c1ncccc1Cl` [I-1-315], 2.54. For `CNC(=O)c1cc(Cl)cc(Cl)c1NC(=O)c1cc(Cc2cccnc2)nn1-c1ncccc1Cl` [I-1-316], the logP amounted to 1.03. In the case of `CC(C)NC(=O)c1cc(Cl)cc(Cl)c1NC(=O)c1cc(Cc2cccnc2)nn1-c1ncccc1Cl` [I-1-317] it was 1.31; in that of `CC(C)NC(=O)c1cc(Cl)cc(Cl)c1NC(=O)c1cc(Cc2cncnc2)nn1-c1ncccc1Cl` [I-1-318], 1.62; in that of `NC(=O)c1cc(Cl)cc(Cl)c1NC(=O)c1cc(Cc2cncnc2)nn1-c1ncccc1Cl` [I-1-319], 2.02. Then `N#CCNC(=O)c1cc(Cl)cc(Cl)c1NC(=O)c1cc(Cc2cncnc2)nn1-c1ncccc1Cl` [I-1-320], with 1.49. In the case of `CNC(=O)c1cc(Cl)cc(Cl)c1NC(=O)c1cc(Cc2cncnc2)nn1-c1ncccc1Cl` [I-1-321] it was 1.41; in that of `CNC(=O)c1cc(Cl)cc(Cl)c1NC(=O)c1cc(Cc2c(C)noc2C)nn1-c1ncccc1Cl` [I-1-322], 1.94. On to `Cc1cc(Cl)cc(C(=O)NC(C)C)c1NC(=O)c1cc(Cn2cnc(C(F)(F)C(F)(F)F)n2)nn1-c1ncccc1Cl` [I-1-323], for which the logP is on record as 3.01. In the case of `C[C@@H](C[S+](C)[O-])NC(=O)c1cc(Cl)cc(Cl)c1NC(=O)c1cc(Cn2cc(C(F)(F)C(F)(F)F)c(C(F)(F)C(F)(F)F)n2)nn1-c1ncccc1Cl` (stereo partly shown) [I-1-325] it was 3.54; in that of `CNC(=O)c1cc(Cl)cc(Cl)c1NC(=O)c1cc(Cn2cnc(C(F)(F)C(F)(F)F)n2)nn1-c1ncccc1Cl` [I-1-326], 2.55. `CC(C)NC(=O)c1cc(Cl)cc(Cl)c1NC(=O)c1cc(Cn2cnc(C(F)(F)C(F)(F)F)n2)nn1-c1ncccc1Cl` [I-1-327] returned a logP of 2.97. Regarding `C[C@@H](CS(C)(=O)=O)NC(=O)c1cc(Cl)cc(Cl)c1NC(=O)c1cc(Cn2cc(C(F)(F)C(F)(F)F)c(C(F)(F)C(F)(F)F)n2)nn1-c1ncccc1Cl` [I-1-328], the logP is listed as 3.63.

`CNC(=O)c1cc(Cl)cc(C)c1NC(=O)c1cc(Cn2cnc(C(F)(F)C(F)(F)F)n2)nn1-c1ncccc1Cl` [I-1-329] registered a logP of 2.57. As to `Cc1cc(Cl)cc(C(N)=O)c1NC(=O)c1cc(Cn2cnc(C(F)(F)C(F)(F)F)n2)nn1-c1ncccc1Cl` [I-1-330], the logP is listed as 2.39.

The compound `Cc1cc(Cl)cc(C(=O)NC2CC2)c1NC(=O)c1cc(Cn2cnc(C(F)(F)C(F)(F)F)n2)nn1-c1ncccc1Cl` [I-1-331] showed a logP of 2.78.

`Cc1cc(Cl)cc(C(=O)NCC#N)c1NC(=O)c1cc(Cn2cnc(C(F)(F)C(F)(F)F)n2)nn1-c1ncccc1Cl` [I-1-332] returned a logP of 2.59.

Compound `CNC(=O)c1cc(C#N)cc(C)c1NC(=O)c1cc(Cn2cnc(C(F)(F)C(F)(F)F)n2)nn1-c1ncccc1Cl` [I-1-333] registered a logP of 2.25. Then `Cc1cc(Cl)cc(C(=O)NC(C)C)c1NC(=O)c1cc(Cn2cnc(C(F)(F)C(F)(F)F)n2)nn1-c1ncccc1Cl` [I-1-334], with 2.66.
